{"source": "ChEMBL document CHEMBL1134292", "about": "“Estrogen receptor-beta potency-selective ligands: structure-activity relationship studies of diarylpropionitriles and their acetylene and polar analogues” (J Med Chem, 2001)", "data": [{"target": "Estrogen receptor beta (Homo sapiens, UniProt Q92731)", "sequence (Q92731 whole entry)": "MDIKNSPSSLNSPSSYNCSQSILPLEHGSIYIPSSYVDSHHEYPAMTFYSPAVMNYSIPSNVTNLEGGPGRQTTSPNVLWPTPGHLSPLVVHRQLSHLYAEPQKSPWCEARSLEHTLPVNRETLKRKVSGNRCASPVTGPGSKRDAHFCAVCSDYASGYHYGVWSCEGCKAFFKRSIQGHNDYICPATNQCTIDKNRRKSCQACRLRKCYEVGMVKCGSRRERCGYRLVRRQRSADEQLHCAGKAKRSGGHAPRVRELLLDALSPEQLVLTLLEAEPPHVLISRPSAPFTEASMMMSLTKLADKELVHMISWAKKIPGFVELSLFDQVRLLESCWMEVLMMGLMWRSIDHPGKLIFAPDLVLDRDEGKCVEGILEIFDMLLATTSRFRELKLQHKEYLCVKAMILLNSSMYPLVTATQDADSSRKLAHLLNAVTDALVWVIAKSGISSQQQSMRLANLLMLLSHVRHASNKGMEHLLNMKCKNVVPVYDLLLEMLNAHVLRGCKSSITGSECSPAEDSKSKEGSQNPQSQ", "units": {"EC50": "nM"}, "description": "Transcriptional potency (EC50) at Human estrogen receptor Beta", "values": [{"compound": "N#CC[C@H](Cc1ccc(O)cc1)c1ccc(O)cc1", "EC50": 30}, {"compound": "C#CC(Cc1ccc(O)cc1)c1ccc(O)cc1", "note": "(stereo not given)", "EC50": 1.4}, {"compound": "N#C/C(=C/c1ccc(O)cc1)c1ccc(O)cc1", "EC50": 220}, {"compound": "CC(C#N)(Cc1ccc(O)cc1)c1ccc(O)cc1", "note": "(stereo not given)", "EC50": 8}, {"compound": "C#CC(c1ccc(O)cc1)C(C#C)c1ccc(O)cc1", "note": "(racemic)", "EC50": 3.7}, {"compound": "C[C@H](c1ccc(O)cc1)[C@@H](C#N)c1ccc(O)cc1", "EC50": 0.14}, {"compound": "CC[C@H](c1ccc(O)cc1)[C@@H](C#N)c1ccc(O)cc1", "EC50": 0.15}, {"compound": "N#CC(C#N)(Cc1ccc(O)cc1)c1ccc(O)cc1", "EC50": 21}, {"compound": "N#CC(c1ccc(O)cc1)C(C#N)c1cccc(O)c1", "note": "(stereo not given)", "EC50": 110}, {"compound": "Cc1cc(O)ccc1CC(C#N)c1ccc(O)cc1", "note": "(stereo not given)", "EC50": 0.37}, {"compound": "Oc1ccc(CC(c2ccc(O)cc2)C(F)(F)C(F)(F)F)cc1", "note": "(stereo not given)", "EC50": 15}, {"compound": "CC(=O)C(Cc1ccc(O)cc1)c1ccc(O)cc1", "note": "(stereo not given)", "EC50": 35}, {"compound": "Oc1ccc(CC(c2ccc(O)cc2)C(F)(F)F)cc1", "note": "(stereo not given)", "EC50": 2}, {"compound": "O=C(C(Cc1ccc(O)cc1)c1ccc(O)cc1)C(F)(F)F", "note": "(stereo not given)", "EC50": 160}, {"compound": "CC#CC(Cc1ccc(O)cc1)c1ccc(O)cc1", "note": "(stereo not given)", "EC50": 2.1}, {"compound": "N#CC(c1ccc(O)cc1)C(C#N)c1ccc(O)cc1", "note": "(stereo in doubt; 31a(dl))", "EC50": 0.41}, {"compound": "Cc1cc(O)ccc1C(C#N)Cc1ccc(O)cc1", "note": "(stereo not given)", "EC50": 1.7}, {"compound": "N#C/C(=C\\c1ccc(O)cc1)c1ccc(O)cc1", "EC50": 140}, {"compound": "N#CC(c1ccc(O)cc1)C(C#N)c1ccc(O)cc1", "note": "(stereo in doubt)", "EC50": 0.42}, {"compound": "COC(=O)C(Cc1ccc(O)cc1)c1ccc(O)cc1", "note": "(stereo not given)", "EC50": 4.9}]}]}
